PubChem BioAssay (NCI)
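Protocol summary: plate cells (96-well), add compound at 5 concentrations, incubate 48 h, interpolate endpoints linearly. GI50 marks 50% less growth. The concentration for full growth arrest is given as TGI.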

Experiments:
Assay in all cases: NCI anticancer screen, dose series, 48 h
OVCAR-4 ovarian = system: OVCAR-4 ovarian
CAKI-1 renal = system: CAKI-1 renal
HL-60(TB) leukemia = system: HL-60(TB) leukemia
NCI-H460 lung = system: NCI-H460 lung
KM20L2 colon = system: KM20L2 colon
NCI-H226 lung = system: NCI-H226 lung
SK-MEL-5 melanoma = system: SK-MEL-5 melanoma
OVCAR-3 ovarian = system: OVCAR-3 ovarian
SK-OV-3 ovarian = system: SK-OV-3 ovarian
SF-268 CNS = system: SF-268 CNS
HOP-62 NSCLC = system: HOP-62 NSCLC
MALME-3M melanoma = system: MALME-3M melanoma
COLO 205 colon = system: COLO 205 colon
SF-295 CNS = system: SF-295 CNS
EKVX NSCLC = system: EKVX NSCLC
HCT-116 colon = system: HCT-116 colon
SN12C renal = system: SN12C renal
OVCAR-8 ovarian = system: OVCAR-8 ovarian
LXFL 529 NSCLC = system: LXFL 529 NSCLC
CCRF-CEM leukemia = system: CCRF-CEM leukemia
IGROV1 ovarian = system: IGROV1 ovarian
HCC-2998 colon = system: HCC-2998 colon
SK-MEL-2 melanoma = system: SK-MEL-2 melanoma
LOX IMVI melanoma = system: LOX IMVI melanoma
KM12 colon = system: KM12 colon
HOP-18 NSCLC = system: HOP-18 NSCLC
HT29 colon = system: HT29 colon
ACHN renal = system: ACHN renal
SNB-19 CNS = system: SNB-19 CNS
RPMI-8226 leukemia = system: RPMI-8226 leukemia
RXF 393 renal = system: RXF 393 renal
UACC-257 melanoma = system: UACC-257 melanoma
OVCAR-5 ovarian = system: OVCAR-5 ovarian
DLD-1 colon = system: DLD-1 colon
UACC-62 melanoma = system: UACC-62 melanoma
SF-539 CNS = system: SF-539 CNS
A549 NSCLC = system: A549 NSCLC
K-562 leukemia = system: K-562 leukemia
SNB-75 CNS = system: SNB-75 CNS
M14 melanoma = system: M14 melanoma
A498 renal = system: A498 renal
UO-31 renal = system: UO-31 renal
MOLT-4 leukemia = system: MOLT-4 leukemia
786-0 renal = system: 786-0 renal
SW-620 colon = system: SW-620 colon
NCI-H522 lung = system: NCI-H522 lung
NCI-H23 lung = system: NCI-H23 lung
HCT-15 colon = system: HCT-15 colon
SK-MEL-28 melanoma = system: SK-MEL-28 melanoma
U251 CNS = system: U251 CNS
DMS 114 small cell lung = system: DMS 114 small cell lung
SR leukemia = system: SR leukemia
DMS 273 small cell lung = system: DMS 273 small cell lung
SNB-78 CNS = system: SNB-78 CNS
M19-MEL melanoma = system: M19-MEL melanoma
HOP-92 NSCLC = system: HOP-92 NSCLC
TK-10 renal = system: TK-10 renal

Compound: CC(=O)[CH-]C(=O)c1ccccc1.CC(=O)[CH-]C(=O)c1ccccc1.Cc1cc([O-])ccc1Cl.Cc1cc([O-])ccc1Cl.[Ti+4]
- GI50 (OVCAR-4 ovarian): 40.8 µM
- TGI (OVCAR-4 ovarian): > 100 µM
- GI50 (CAKI-1 renal): 19.5 µM
- TGI (CAKI-1 renal): 60.1 µM
- GI50 (HL-60(TB) leukemia): 13.7 µM
- TGI (HL-60(TB) leukemia): 44.2 µM
- GI50 (NCI-H460 lung): 22.6 µM
- TGI (NCI-H460 lung): > 100 µM
- GI50 (KM20L2 colon): 28.3 µM
- TGI (KM20L2 colon): 84.9 µM
- GI50 (NCI-H226 lung): 20.2 µM
- TGI (NCI-H226 lung): 69.2 µM
- GI50 (SK-MEL-5 melanoma): 19.3 µM
- TGI (SK-MEL-5 melanoma): 44.9 µM
- GI50 (OVCAR-3 ovarian): 18.9 µM
- TGI (OVCAR-3 ovarian): 60.6 µM
- GI50 (SK-OV-3 ovarian): 31.3 µM
- TGI (SK-OV-3 ovarian): > 100 µM
- GI50 (SF-268 CNS): 19.5 µM
- TGI (SF-268 CNS): 74.8 µM
- GI50 (HOP-62 NSCLC): 19.5 µM
- TGI (HOP-62 NSCLC): 70.9 µM
- GI50 (MALME-3M melanoma): 20.9 µM
- TGI (MALME-3M melanoma): 52.8 µM
- GI50 (COLO 205 colon): 19.6 µM
- TGI (COLO 205 colon): 38.1 µM
- GI50 (SF-295 CNS): 29.8 µM
- TGI (SF-295 CNS): 98.7 µM
- GI50 (EKVX NSCLC): 18 µM
- TGI (EKVX NSCLC): 47.3 µM
- GI50 (HCT-116 colon): 35 µM
- TGI (HCT-116 colon): > 100 µM
- GI50 (SN12C renal): 32.3 µM
- TGI (SN12C renal): > 100 µM
- GI50 (OVCAR-8 ovarian): 16.8 µM
- TGI (OVCAR-8 ovarian): 59.1 µM
- GI50 (LXFL 529 NSCLC): 22.1 µM
- TGI (LXFL 529 NSCLC): > 100 µM
- GI50 (CCRF-CEM leukemia): 8.45 µM
- TGI (CCRF-CEM leukemia): 42.3 µM
- GI50 (IGROV1 ovarian): 26.9 µM
- TGI (IGROV1 ovarian): > 100 µM
- GI50 (HCC-2998 colon): 5.92 µM
- TGI (HCC-2998 colon): 28.1 µM
- GI50 (SK-MEL-2 melanoma): 19.3 µM
- TGI (SK-MEL-2 melanoma): 47 µM
- GI50 (LOX IMVI melanoma): 12.6 µM
- TGI (LOX IMVI melanoma): 31.8 µM
- GI50 (KM12 colon): 14.1 µM
- TGI (KM12 colon): 31.4 µM
- GI50 (HOP-18 NSCLC): 27.8 µM
- TGI (HOP-18 NSCLC): > 100 µM
- GI50 (HT29 colon): 28.9 µM
- TGI (HT29 colon): 95.5 µM
- GI50 (ACHN renal): 30.1 µM
- TGI (ACHN renal): > 100 µM
- GI50 (SNB-19 CNS): 26.7 µM
- TGI (SNB-19 CNS): 90.5 µM
- GI50 (RPMI-8226 leukemia): 19.2 µM
- TGI (RPMI-8226 leukemia): 55.3 µM
- GI50 (RXF 393 renal): 26 µM
- TGI (RXF 393 renal): 62.8 µM
- GI50 (UACC-257 melanoma): 27.1 µM
- TGI (UACC-257 melanoma): 92.4 µM
- GI50 (OVCAR-5 ovarian): 32.7 µM
- TGI (OVCAR-5 ovarian): > 100 µM
- GI50 (DLD-1 colon): 36.9 µM
- TGI (DLD-1 colon): > 100 µM
- GI50 (UACC-62 melanoma): 17 µM
- TGI (UACC-62 melanoma): 44.9 µM
- GI50 (SF-539 CNS): 25.9 µM
- TGI (SF-539 CNS): 72.9 µM
- GI50 (A549 NSCLC): 37.6 µM
- TGI (A549 NSCLC): > 100 µM
- GI50 (K-562 leukemia): 23.3 µM
- TGI (K-562 leukemia): > 100 µM
- GI50 (SNB-75 CNS): 20.7 µM
- TGI (SNB-75 CNS): 69.1 µM
- GI50 (M14 melanoma): 23.1 µM
- TGI (M14 melanoma): 52.5 µM
- GI50 (A498 renal): 17.2 µM
- TGI (A498 renal): 42.8 µM
- GI50 (UO-31 renal): 15.5 µM
- TGI (UO-31 renal): 47.4 µM
- GI50 (MOLT-4 leukemia): 15.5 µM
- TGI (MOLT-4 leukemia): 54 µM
- GI50 (786-0 renal): 27.7 µM
- TGI (786-0 renal): > 100 µM
- GI50 (SW-620 colon): 34 µM
- TGI (SW-620 colon): > 100 µM
- GI50 (NCI-H522 lung): 15.6 µM
- TGI (NCI-H522 lung): 34.7 µM
- GI50 (NCI-H23 lung): 35.6 µM
- TGI (NCI-H23 lung): > 100 µM
- GI50 (HCT-15 colon): 25.6 µM
- TGI (HCT-15 colon): > 100 µM
- GI50 (SK-MEL-28 melanoma): 34.7 µM
- TGI (SK-MEL-28 melanoma): > 100 µM
- GI50 (U251 CNS): 22.1 µM
- TGI (U251 CNS): > 100 µM

Compound: Cc1ccc2c(ccc(/C=C\c3cc(C)c4cccnc4c3O)[n+]2C)c1
- TGI (OVCAR-4 ovarian): 39 µM
- TGI (CAKI-1 renal): 25.5 µM
- TGI (HL-60(TB) leukemia): 19.7 µM
- TGI (NCI-H460 lung): 18 µM
- TGI (KM20L2 colon): 33.3 µM
- TGI (NCI-H226 lung): 3.98 µM
- TGI (SK-MEL-5 melanoma): 2.98 µM
- TGI (OVCAR-3 ovarian): 12.9 µM
- TGI (SF-268 CNS): 47.6 µM
- TGI (DMS 114 small cell lung): 7.54 µM
- TGI (HOP-62 NSCLC): 27.6 µM
- TGI (MALME-3M melanoma): 25.1 µM
- TGI (COLO 205 colon): 71.9 µM
- TGI (SF-295 CNS): 26.9 µM
- TGI (EKVX NSCLC): 75 µM
- TGI (HCT-116 colon): 19.6 µM
- TGI (SN12C renal): 24.7 µM
- TGI (OVCAR-8 ovarian): 24.1 µM
- TGI (LXFL 529 NSCLC): 18.9 µM
- TGI (CCRF-CEM leukemia): 26 µM
- TGI (IGROV1 ovarian): > 100 µM
- TGI (HCC-2998 colon): 11.6 µM
- TGI (LOX IMVI melanoma): 56.2 µM
- TGI (KM12 colon): 31.6 µM
- TGI (HOP-18 NSCLC): 9.28 µM
- TGI (ACHN renal): 20.4 µM
- TGI (SNB-19 CNS): 35 µM
- TGI (RPMI-8226 leukemia): 21.6 µM
- TGI (UACC-257 melanoma): 28.4 µM
- TGI (OVCAR-5 ovarian): > 100 µM
- TGI (DLD-1 colon): 4.36 µM
- TGI (UACC-62 melanoma): 15 µM
- TGI (SR leukemia): 25.4 µM
- TGI (SF-539 CNS): 25.1 µM
- TGI (DMS 273 small cell lung): 21.4 µM
- TGI (A549 NSCLC): 40.9 µM
- TGI (K-562 leukemia): > 100 µM
- TGI (M14 melanoma): 25.5 µM
- TGI (A498 renal): 33.9 µM
- TGI (UO-31 renal): 66 µM
- TGI (MOLT-4 leukemia): 28.4 µM
- TGI (786-0 renal): > 100 µM
- TGI (SW-620 colon): 30.1 µM
- TGI (NCI-H522 lung): 27.8 µM
- TGI (NCI-H23 lung): 53.4 µM
- TGI (U251 CNS): 68.7 µM

Compound: CC1(C(=O)Nc2ccc3ccccc3c2)CC2(C)CC(C)(C1)C(O)NC2=O (centres undefined)
- TGI (HL-60(TB) leukemia): > 100 µM
- TGI (SNB-78 CNS): > 100 µM
- TGI (NCI-H460 lung): > 100 µM
- TGI (SK-OV-3 ovarian): > 100 µM
- TGI (SF-268 CNS): > 100 µM
- TGI (HOP-62 NSCLC): > 100 µM
- TGI (SF-295 CNS): > 100 µM
- TGI (EKVX NSCLC): > 100 µM
- TGI (M19-MEL melanoma): > 100 µM
- TGI (OVCAR-8 ovarian): > 100 µM
- TGI (CCRF-CEM leukemia): > 100 µM
- TGI (HOP-92 NSCLC): > 100 µM
- TGI (IGROV1 ovarian): > 100 µM
- TGI (KM12 colon): > 100 µM
- TGI (HT29 colon): > 100 µM
- TGI (ACHN renal): > 100 µM
- TGI (SNB-19 CNS): > 100 µM
- TGI (RXF 393 renal): > 100 µM
- TGI (UACC-257 melanoma): > 100 µM
- TGI (OVCAR-5 ovarian): > 100 µM
- TGI (UACC-62 melanoma): > 100 µM
- TGI (SR leukemia): > 100 µM
- TGI (DMS 273 small cell lung): > 100 µM
- TGI (A549 NSCLC): > 100 µM
- TGI (M14 melanoma): > 100 µM
- TGI (A498 renal): > 100 µM
- TGI (UO-31 renal): > 100 µM
- TGI (MOLT-4 leukemia): > 100 µM
- TGI (TK-10 renal): > 100 µM
- TGI (NCI-H522 lung): > 100 µM
- TGI (NCI-H23 lung): > 100 µM
- TGI (SK-MEL-28 melanoma): > 100 µM
- TGI (U251 CNS): > 100 µM
